From paper PMC3566091, “Binding of the Radioligand SIL23 to α-Synuclein Fibrils in Parkinson Disease Brain Tissue Establishes Feasibility and Screening Approaches for Developing a Parkinson Disease Imaging Agent” (PLoS ONE, 2013)
Where two headings read alike, the source gives them in different places. One block for each molecule: values may come before it.

Columns and labels:
Aβ plaques in AD brain [1] = details: cited from earlier work
[2] = target: T1, Human PD brain homogenate (insoluble fraction) (Homo sapiens, UniProt P37840); details: read-out: Ki, Human PD brain homogenate; 200 nM [125I]SIL23, 10 µg insoluble fraction/150 µl; 95% confidence interval in parentheses
PD tissue = system: PD tissue; set-up: method as in PMID 19576880; details: cited from earlier work
[3] = target: T2, recombinant α-syn fibrils (Homo sapiens, UniProt P37840); details: read-out: Ki, α-Syn fibrils; 200 nM [125I]SIL23, 1 µM fibrils; Ki from EC50; 95% confidence interval in parentheses
[4] = target: T1, Human PD brain homogenate (insoluble fraction); experiment: biochemical
[5] = target: T2, recombinant α-syn fibrils; experiment: biochemical
Aβ plaques in AD brain [6] = system: Aβ plaques in AD brain; set-up: method as in PMID 16291932; details: cited from earlier work
synthetic Aβ1–42 fibrils [7] = target: T3, synthetic Aβ1–42 fibrils (Homo sapiens, UniProt P05067); experiment: biochemical
T3 sequence (P05067 672-713 limits assumed): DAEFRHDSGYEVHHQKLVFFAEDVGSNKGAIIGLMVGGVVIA

recombinant tau fibrils [8] = target: T4, recombinant tau fibrils (Homo sapiens, UniProt P10636); experiment: biochemical
T4 sequence (P10636 560-692): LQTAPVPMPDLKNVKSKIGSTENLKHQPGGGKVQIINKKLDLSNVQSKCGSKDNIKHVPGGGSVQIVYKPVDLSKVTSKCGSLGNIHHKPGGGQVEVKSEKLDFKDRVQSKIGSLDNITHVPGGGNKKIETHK

[9] = system: insoluble fractions from control human brain tissue; experiment: [125I]SIL23 saturation binding to insoluble fractions of control brain tissue; details: four control cases, listed as [^125I]SIL23
Method: Brain tissue samples were selected from an autopsy case series of patients evaluated for parkinsonism by movement disorders specialists at the Movement Disorders Center of Washington University School of Medicine in St. Louis. The clinical diagnosis of idiopathic PD was based on modified United Kingdom Parkinson’s Disease Society Brain Bank clinical diagnostic criteria with clear clinical response to levodopa. Dementia was determined by a movement disorders specialist based on clinical assessment of cognitive dysfunction sufficiently severe to impair activities of daily living, with further evaluation of cognitive impairment using the AD8 [20] and Mini-Mental Status Exam (MMSE). LB stage was assessed at autopsy using a PD staging scale (range: 0, 1–6). PD cases were selected based on a clinical diagnosis of PD plus dementia, Braak LB stage 5–6 pathology, and the absence of significant Aβ or tau pathology determined by immunohistochemistry. Control cases were selected based on the absence of α-syn, Aβ and tau pathology. Samples were used from both male and female subjects.
(§1) All data points were performed in triplicate.

synthetic Aβ1–42 fibrils [10] = target: T3, synthetic Aβ1–42 fibrils
[11] = system: crude PBS homogenate from control human brain; experiment: [125I]SIL23 saturation binding to crude control brain homogenate; details: unfractionated PBS homogenate
Method: as §1

recombinant tau fibrils [12] = target: T4, recombinant tau fibrils

SMILES: CNc1ccc(/C=C/c2ccc(OCCOCCOCCF)nc2)cc1 [AV-45]
average Bmax (binding site density) for AV-45 binding in AD brain (Aβ plaques in AD brain [1]; AD brain): 8.8 pmol/mg protein
Kd (Aβ plaques in AD brain [1]; read-out: Kd for AV-45 binding to Aβ plaques): 3.7 nM

SMILES: CN(C)c1ncc(/C=C/c2nc3ccc(OCCF)cc3o2)s1 [BF227]
Ki [2]: 138 nM
radiolabeled BF227 binding in PD tissue (PD tissue): not detectable
Ki [3]: 39.7 nM

SMILES: O=C(O)c1cc(/N=N/c2ccc(-c3ccc(/N=N/c4ccc(O)c(C(=O)O)c4)cc3)cc2)ccc1O [Chrysamine G]
Ki [4]: 367 nM
Ki [5]: 432 nM

SMILES: CNc1ccc(-c2nc3ccc(O)cc3s2)cc1 [PiB, Pittsburgh Compound B]
Ki [4]: 99.2 nM
Ki [5]: 116 nM
average Bmax (binding site density) for PiB binding in AD brain (Aβ plaques in AD brain [6]; AD brain): 1407 pmol/g wet weight
Kd (Aβ plaques in AD brain [6]; read-out: Kd for PiB binding to Aβ plaques): 2.5 nM

SMILES: O=[N+]([O-])c1ccc2c(c1)Sc1ccccc1N2 [SIL3B]
Ki (synthetic Aβ1–42 fibrils [7]): 71.5 nM
Ki (recombinant tau fibrils [8]): 52.3 nM

SMILES: O=[N+]([O-])c1ccc2c(c1)Sc1cc(OC/C=C/I)ccc1N2 [SIL23]
[125I]SIL23 binding in control cases [9]: no significant [^125I]SIL23 binding
Bmax of [125I]SIL23 binding to Aβ1–42 fibrils (synthetic Aβ1–42 fibrils [10]): 23.7 pmol/nmol
[125I]SIL23 binding in crude homogenate of a control case [11]: no significant binding
[125I]SIL23 binding in crude homogenate of a control case ([11]; listed as [^125I]SIL23): No significant specific binding
Bmax of [125I]SIL23 binding to tau fibrils (recombinant tau fibrils [12]): 4.57 pmol/nmol

Next, values leading:

Ki (synthetic Aβ1–42 fibrils [7]): 110 nM
SMILES: COc1ccc2c(c1)Sc1cc([N+](=O)[O-])ccc1N2 [SIL5]

Ki (synthetic Aβ1–42 fibrils [7]): 102 nM
Ki (recombinant tau fibrils [8]): 173 nM
SMILES: O=[N+]([O-])c1ccc2c(c1)Sc1cc(Br)ccc1N2 [SIL22]
